The target in experiment [1] is T1, Endothelin receptor type B (Homo sapiens, UniProt P24530).
T1 sequence (P24530 whole entry): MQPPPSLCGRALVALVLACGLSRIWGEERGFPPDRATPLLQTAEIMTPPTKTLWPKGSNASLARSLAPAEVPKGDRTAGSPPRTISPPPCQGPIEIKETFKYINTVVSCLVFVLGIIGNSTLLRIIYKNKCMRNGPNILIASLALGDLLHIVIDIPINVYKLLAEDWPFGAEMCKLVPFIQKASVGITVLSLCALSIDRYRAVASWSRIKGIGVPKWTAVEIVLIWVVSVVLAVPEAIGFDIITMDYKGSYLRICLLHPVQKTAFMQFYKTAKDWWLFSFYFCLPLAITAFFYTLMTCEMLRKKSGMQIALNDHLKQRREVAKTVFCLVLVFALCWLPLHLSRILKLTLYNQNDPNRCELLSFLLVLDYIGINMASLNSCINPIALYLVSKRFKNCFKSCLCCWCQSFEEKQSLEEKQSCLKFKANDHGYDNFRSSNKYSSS
Description: Binding affinity to human ETB receptor transfected in CHO cell membrane assessed as inhibition constant incubated for 3 hrs by 125I-labelled ET-1 saturation binding assay. Format: cell membranes.

The target in experiment [2] is T1, Endothelin receptor type B. Description: Antagonist activity at human ETB receptor transfected in CHO cell membrane […]. The experiment is classed as functional, cell membranes.
Experiment [3] deals with T2, Endothelin-1 receptor (Homo sapiens, UniProt P25101).
T2 sequence (P25101 whole entry): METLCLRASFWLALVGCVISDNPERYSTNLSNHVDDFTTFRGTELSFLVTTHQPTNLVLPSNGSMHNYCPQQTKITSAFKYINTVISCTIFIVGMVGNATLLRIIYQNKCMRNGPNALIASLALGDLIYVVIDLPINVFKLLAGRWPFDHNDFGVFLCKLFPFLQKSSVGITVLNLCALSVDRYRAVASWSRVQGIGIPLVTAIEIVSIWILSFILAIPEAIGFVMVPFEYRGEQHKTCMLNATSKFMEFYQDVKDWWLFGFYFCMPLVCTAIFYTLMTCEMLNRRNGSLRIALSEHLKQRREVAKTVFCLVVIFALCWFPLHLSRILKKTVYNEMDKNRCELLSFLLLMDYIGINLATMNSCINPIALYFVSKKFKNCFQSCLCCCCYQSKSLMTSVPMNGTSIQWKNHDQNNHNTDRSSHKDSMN
Description: Antagonist activity at human ETA receptor transfected in CHO cell membrane assessed as inhibition of 125I-labelled ET-1 binding to receptor incubated for 3 hrs by competition binding assay. Format: functional, cell membranes.

In experiment [4] the target is T3, Endothelin-1 receptor (Rattus norvegicus, UniProt P26684).
T3 sequence (P26684 whole entry): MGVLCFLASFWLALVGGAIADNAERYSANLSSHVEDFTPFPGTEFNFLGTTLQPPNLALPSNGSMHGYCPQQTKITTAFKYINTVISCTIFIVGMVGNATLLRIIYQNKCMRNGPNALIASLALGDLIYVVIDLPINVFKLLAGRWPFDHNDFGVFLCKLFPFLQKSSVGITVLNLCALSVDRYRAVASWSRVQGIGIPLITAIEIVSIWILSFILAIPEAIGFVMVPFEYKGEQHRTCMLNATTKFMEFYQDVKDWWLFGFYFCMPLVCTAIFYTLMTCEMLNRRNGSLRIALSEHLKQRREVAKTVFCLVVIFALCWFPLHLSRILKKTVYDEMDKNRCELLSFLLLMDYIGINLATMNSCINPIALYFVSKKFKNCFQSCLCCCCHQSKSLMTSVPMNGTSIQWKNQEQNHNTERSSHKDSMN
The experiment is described as follows: Antagonist activity at ETA receptor in rat MMQ cells assessed as inhibition of phosphatidylinositol hydrolysis by myo-[3H]inositol radioactivity based assay. Format: functional, cell-based.

Experiment [5] has as its target T2, Endothelin-1 receptor. The experiment is described as follows: Binding affinity to human ETA receptor transfected in CHO cell membrane assessed as inhibition constant incubated for 3 hrs by 125I-labelled ET-1 saturation binding assay. The experiment is classed as cell membranes.

Consider `CCCCCS(=O)(=O)N(CCC)CCN1C[C@H](c2ccc3c(c2)OCO3)[C@@H](C(=O)O)[C@@H]1c1ccc(OC)c(F)c1`, for which the inhibition constant (Ki) in experiment [1] was found to be 1.23 nM. Further, the 50% inhibitory concentration (IC50) in experiment [2] was 1.12 nM.

As for `CCCOc1ccc([C@H]2[C@H](C(=O)O)[C@@H](c3ccc4c(c3)OCO4)CN2CC(=O)Nc2c(CC)cccc2CC)cc1` [A-192621], the IC50 is 4280 nM on Endothelin-1 receptor [3], not below 700 nM on Endothelin-1 receptor [4] and 0.59 nM in experiment [2]. Also, on Endothelin-1 receptor [5], the inhibition constant Ki worked out at 5600 nM.

Regarding `CCCCN(CCCC)C(=O)CN1C[C@H](c2cc(OC)c3c(c2)OCO3)[C@@H](C(=O)O)[C@@H]1CC(C)(C)CCC` [ABT-546], the IC50 at Endothelin-1 receptor [4] amounted to 0.59 nM.

(Values after ChEMBL document CHEMBL5653593 (Clin Sci (Lond), 2002).)
